# From patent US7462647B2, “Pentalfluoroalkanesulfinyl naphthalenes and related estrogen receptor modulators” (Eli Lilly and Company, priority 2003, dated 2008)
# What was measured:
# [1] = system: MCF-7 breast adenocarcinoma cells; assay: MCF-7 proliferation assay (14C-thymidine), antagonist mode; format: cell-based
# Protocol: MCF-7 breast adenocarcinoma cells (ATCC HTB 22) are maintained in MEM (minimal essential medium, phenol red-free, Gibco BRL) supplemented with 10% fetal bovine serum (FBS) (V/V), L-glutamine (2 mM), sodium pyruvate (1 mM), HEPES ((N-[2-hydroxyethyl]piperazine-N′-[2-ethanesulfonic acid]10 mM}, non-essential amino acids (0.1 mM) and Penicillin Streptomycin(IX). Seven days prior to assay, MCF-7 cells are switched to assay media which is the same as maintenance medium except supplemented with 10% dextran-coated charcoal-stripped fetal bovine serum (DCC-FBS) assay medium in place of 10% FBS. MCF-7 cells are removed from flasks using 10× Trypsin EDTA (phenol red free, Gibco BRL) and diluted to 1× in (Ca++/Mg++ free HBSS (phenol red-free). Cells are adjusted to 80,000 cells/ml in assay medium. […] For each of the agonist plates, a basal level (media), and a maximum stimulated level (with 1 μM E2) is determined. For each of the antagonist plates, a basal level (media) and a E2 (10 pM) alone control is determined. […] The plates are incubated overnight in the same incubator and then counted on the Wallac Microbeta counter. […] For the agonist mode, an EC50 and percent of maximum E2 stimulation and concentration of maximum stimulation is calculated. […]
# ERbeta receptor = biological target: T1, ERbeta receptor (Homo sapiens, UniProt Q92731); assay: Competition binding assay, 3H-Estradiol, ER beta; details: IC50 converted to Ki using Cheng-Prusoff equation; read-out: Binding ER b Ki
# T1 construct: purchased PanVera
# T1 sequence (Q92731 whole entry): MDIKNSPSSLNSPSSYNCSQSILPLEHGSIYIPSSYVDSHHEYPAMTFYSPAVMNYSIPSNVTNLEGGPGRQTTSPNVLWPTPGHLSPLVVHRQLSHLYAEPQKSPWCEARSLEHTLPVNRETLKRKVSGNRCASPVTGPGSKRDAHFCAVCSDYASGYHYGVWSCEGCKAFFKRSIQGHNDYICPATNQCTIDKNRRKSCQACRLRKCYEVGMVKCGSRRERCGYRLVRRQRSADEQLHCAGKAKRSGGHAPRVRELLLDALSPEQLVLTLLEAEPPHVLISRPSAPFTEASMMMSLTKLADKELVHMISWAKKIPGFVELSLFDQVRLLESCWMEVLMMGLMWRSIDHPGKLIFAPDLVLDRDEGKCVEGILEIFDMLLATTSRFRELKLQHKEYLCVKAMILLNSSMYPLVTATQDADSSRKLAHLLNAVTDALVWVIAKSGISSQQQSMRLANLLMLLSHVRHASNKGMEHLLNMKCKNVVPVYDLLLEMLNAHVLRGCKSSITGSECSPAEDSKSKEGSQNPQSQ
# Protocol: (§1) Competition binding assay is run in a buffer containing 50 mM Hepes, pH 7.5, 1.5 mM EDTA, 150 mM NaCl, 10% glycerol, 1 mg/ml ovalbumin and 5 mM DTT, using 0.025 μCi per well ^3H-Estradiol(NEN #NET517 at […], 1 mCi/ml), 10 ng/well ERAlpha or ERbeta receptor (PanVera). Competing compounds are added at 10 different concentrations. Non-specific binding is determined in the presence of 1 μM of 17-B Estradiol. The binding reaction (140 μl) is incubated for 4 hours at room temperature, then 70 μl of cold DCC buffer is added to each reaction (DCC buffer contains per 50 ml of assay buffer, 0.75 g of charcoal (Sigma) and 0.25 g of dextran (Pharmacia)). Plates are mixed 8 minutes on an orbital shaker at 4° C. Plates are then centrifuged at 3,000 rpm at 4° C. for 10 minutes. An aliquot of 120 μl of the mix is transferred to another 96-well, white flat bottom plate (Costar) and 175 μl of Wallac Optiphase “Hisafe 3” scintillation fluid is added to each well. Plates are sealed and shaken vigorously on an orbital shaker. After an incubation of 2.5 hrs, read plates in a Wallac Microbeta counter. The data is used to calculate an IC50 and % Inhibition at 10 μM. The Kd for ^3H-Estradiol is determined by saturation binding to ER alpha and ER beta receptors. The IC50 values for compounds are converted to K; using Cheng-Prusoff equation and the Kd determined by saturation binding assay.
# ERAlpha receptor = biological target: T2, ERAlpha receptor (Homo sapiens, UniProt P03372); assay: Competition binding assay, 3H-Estradiol, ER alpha; details: IC50 converted to Ki using Cheng-Prusoff equation
# T2 construct: purchased PanVera
# T2 sequence (P03372 1-595): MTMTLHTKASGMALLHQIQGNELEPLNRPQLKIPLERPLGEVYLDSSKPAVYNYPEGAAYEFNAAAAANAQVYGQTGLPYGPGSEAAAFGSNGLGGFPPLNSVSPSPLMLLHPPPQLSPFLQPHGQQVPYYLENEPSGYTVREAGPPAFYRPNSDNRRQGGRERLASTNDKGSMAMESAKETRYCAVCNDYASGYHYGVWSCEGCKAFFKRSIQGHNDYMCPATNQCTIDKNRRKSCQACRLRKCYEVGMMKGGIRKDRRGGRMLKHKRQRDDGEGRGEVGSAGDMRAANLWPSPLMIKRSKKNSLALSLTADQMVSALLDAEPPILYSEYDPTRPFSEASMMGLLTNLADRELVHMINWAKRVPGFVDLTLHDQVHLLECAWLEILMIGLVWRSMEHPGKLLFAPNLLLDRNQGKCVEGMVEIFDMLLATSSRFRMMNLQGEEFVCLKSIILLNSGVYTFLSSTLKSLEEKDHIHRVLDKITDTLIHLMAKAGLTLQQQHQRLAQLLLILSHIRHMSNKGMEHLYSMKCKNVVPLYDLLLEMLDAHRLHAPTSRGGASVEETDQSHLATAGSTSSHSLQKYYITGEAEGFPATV
# Protocol: as §1
# [2] = system: Ishikawa human endometrial tumor cells; assay: Ishikawa cell alkaline phosphatase (PNPP) assay, antagonist mode; format: cell-based
# Source text: Ishikawa human endometrial tumor cells are maintained in MEM (minimum essential medium, with Earle's salts and L-Glutamine, Gibco BRL, Gaithersburg, Md.), supplemented with 10% fetal bovine serum (FBS) (V/V), (Gibco BRL). One day prior to assay, growth media is changed to assay medium, DMEM/F-12 (3:1) (Dulbecco's Modified Eagle Medium: Nutrient Mixture F-12, 3:1 Mixture, phenol red-free, Gibco BRL) supplemented with 5% dextran coated charcoal stripped fetal bovine serum (DCC-FBS) (Hyclone, Logen, UT), L-Glutamine (2 mM), MEM sodium pyruvate (1 mM), HEPES (N-[2-hydroxyethyl]piperazine-N′-[2-ethanesulfonic acid]2 mM) all from Gibco BRL). After an overnight incubation, ishikawa cells are rinsed with Dulbecco's Phosphate Buffered Saline (1×) (D-PBS) without Ca^+2 and Mg^+2 (Gibco BRL), and trypsinized by a 3 minute incubation with 0.25% Trypsin/EDTA, phenol red-free (Gibco BRL). Cells are resuspended in assay medium and adjusted to 250,000 cells/ml. […] After a 20-minute incubation, plates are read on a spectophotometer at 405 nm. […] For the agonist mode, a % efficacy for each compound is calculated versus the response to Tamoxifen. For the antagonist mode, a % efficacy for each compound is calculated versus E2 (1 nM) alone.
compound,measurement,setting,value
"COc1ccc(-c2ccc3cc(O)ccc3c2Oc2ccc(OCCCC[S+]([O-])CCCC(F)(F)C(F)(F)F)cc2)cc1 (stereo not drawn) [Example 2, 6-(4-Methoxy-phenyl)-5-{4-[4-(4,4,5,5,5-pentafluoro-pentane-sulfinyl)-butoxy]-phenoxy}-naphthalen-2-ol]",MCF-7 Antag. % Eff.,"[1]; 10 pM E2, % inhibition @ 1 μM",86%
same,IC50,"[1]; Homo sapiens, MCF7, 10 pM E2, read-out: MCF-7 IC 50",2.5 nM
same,Ki,ERbeta receptor,0.2 nM
same,Ki,ERAlpha receptor,0.3 nM
same,Ishikawa Antag. % Eff.,[2]; % efficacy versus E2 (1 nM) alone,100%
same,IC50,"[2]; Homo sapiens, Ishikawa, E2 1 nM, read-out: Ishikawa IC 50",6.8 nM
